Data reported in patent US5846538A, “Immune reactivity to HER-2/neu protein for diagnosis and treatment of malignancies in which the her-2/neu oncogene is associated” (University of Washington, priority 1995, dated 1998).

Tests used:
HLA-A2.1 = target: T1, HLA-A2.1 (Homo sapiens, UniProt P04439, D140Y/D185E/D98H/E176V/E277Q/G131W/G231S/I119V/I121R/I166T/I218V/L300P/L318F/N151K/N90K/P208A/P217A/Q86G/Q94H/R138H/R169H/T345S); experiment: class I MHC molecule stabilization assay on T2 cells; type: cell-based; details: T2 cells incubated 18 hours with peptide, vs medium alone
T1 construct: T2 without exogenous peptide has low expression of HLA-A2 (30%-50%); endogenous in cells; host or cells: T2 (human T-B cell hybrid)

rat sera = experiment: ELISA for peptide epitope analysis of sera of immunized rats; type: in vivo; details: sera from rats immunized with ECD peptides
Description: One group of rats was immunized with a mixture of extracellular domain (ECD) peptides and one group with a mixture of intracellular domain (ICD) peptides. The final group received adjuvant alone. Peptides were administered at a final concentration of 100 μg each in a total volume of 200 μl. The animals underwent 3 immunizations each 14-16 days apart with either CFA or IFA as adjuvant (Sigma ImmunoChemicals, St. Louis, Mo.). 16 days after the third immunization sera was obtained for assessment of immune response.
96 well Immulon 4 plates (Dynatech Laboratories) were incubated overnight at 4° C. with peptides at a concentration of 10 μg/well diluted in PBS alternating with rows of PBS/1%BSA. After incubation, all wells were blocked with PBS/1%BSA, 100 μl/well for 4 hours at room temperature. The plate was washed with PBS/0.5% Tween. After washing, the plate was incubated with rat sera at the following dilutions: 1:50 and 1:100. The sera was diluted in PBS/1%BSA/1% FBS/25 μg/ml mouse IgG/0.01% NaN3 and then serially into PBS/1%BSA. […] Color reaction was read at an optical density of 640 nm until the reading on the most reactive well reached 0.3 OD. The reaction was stopped with 1N HCl and the optical density was read at 450 nm. The OD of each serum dilution was calculated as the OD of the peptide coated wells minus the OD of the PBS/1%BSA coated wells. […]

[1] = system: peripheral blood mononuclear cells (PBMC); experiment: standard proliferation assay of PBMC (3H-thymidine), CD4+ T cell response; type: cell-based, human
PBL = experiment: low frequency event screening assay for CD4+ T cell precursors in PBL of normal individuals; type: cell-based, human
[2] = breast cancer patient A, HER-2/neu status Negative, tetanus toxoid 5 μg/ml, p185 5 μg/ml, peptides 50 μg/ml, 4 days
[3] = breast cancer patient B, HER-2/neu status Positive, tetanus toxoid 5 μg/ml, p185 5 μg/ml, peptides 50 μg/ml, 4 days
[4] = breast cancer patient C, HER-2/neu status Positive, tetanus toxoid 5 μg/ml, p185 5 μg/ml, peptides 50 μg/ml, 4 days
[5] = breast cancer patient D, HER-2/neu status Positive, tetanus toxoid 5 μg/ml, p185 5 μg/ml, peptides 50 μg/ml, 4 days

With `CC(C)C[C@H](NC(=O)[C@@H](N)Cc1c[nH]cn1)C(=O)N[C@@H](Cc1ccc(O)cc1)C(=O)N[C@@H](CCC(N)=O)C(=O)NCC(=O)N[C@@H](CS)C(=O)N[C@@H](CCC(N)=O)C(=O)N[C@H](C(=O)N[C@H](C(=O)O)C(C)C)C(C)C` [p48-56] the “% Increase of class I stabilization on T2” value (HLA-A2.1) was 20%.

In the case of `CC(C)C[C@H](NC(=O)[C@H](CCC(N)=O)NC(=O)[C@@H](NC(=O)[C@@H](NC(=O)[C@H](CO)NC(=O)[C@@H](NC(=O)[C@H](CC(C)C)NC(=O)[C@@H](N)CS)[C@@H](C)O)[C@@H](C)O)C(C)C)C(=O)N[C@H](C(=O)O)C(C)C` [p789-797], the “% Increase of class I stabilization on T2” value (HLA-A2.1) is reported as 20%.

With TQRCEKCSKPCARVCYGL [p328-345] the “antibody responses to individual peptides” value (rat sera) was “substantial responses”.

In the case of Tetanus Toxoid [reference compound], the “Stimulation Index (S.I.)” value [1, 2] is reported as 52, the “Stimulation Index (S.I.)” value [1, 3] is reported as 36 and the “Stimulation Index (S.I.)” value [1, 4] is reported as 7. For the same compound, the “Stimulation Index (S.I.)” value [1, 5] was 10, the “Stimulation Index (S.I.)” value ([1]; normal individual 1) was 6 and the “Stimulation Index (S.I.)” value ([1]; normal individual 2) was 7. The “Stimulation Index (S.I.)” value ([1]; normal individual 3) was 7, the “Stimulation Index (S.I.)” value ([1]; normal individual 4) was 10 and the “Stimulation Index (S.I.)” value ([1]; normal individual 5) was 11.

“p185: protein product of the HER-2/neu oncogene, partially purified whole protein from SKBR3 cell membranes” was tested, and the “Stimulation Index (S.I.)” value [1, 2] was 13, the “Stimulation Index (S.I.)” value [1, 3] was under 2 and the “Stimulation Index (S.I.)” value [1, 4] was 4. For the same compound, the “Stimulation Index (S.I.)” value [1, 5] was 4, the “Stimulation Index (S.I.)” value ([1]; normal individual 1) was 2 and the “Stimulation Index (S.I.)” value ([1]; normal individual 2) was under 2. The “Stimulation Index (S.I.)” value ([1]; normal individual 3) was under 2, the “Stimulation Index (S.I.)” value ([1]; normal individual 4) was 2 and the “Stimulation Index (S.I.)” value ([1]; normal individual 5) was 2. For the same compound, the “CD4+ T cell response in low frequency screening” value (PBL; one normal individual (FIG. 2)) was “Positive responses” and the “individuals with a proliferative response” value (PBL; seven normal subjects (4 males, 3 females)) was 57%.
